{"source": "patent US10881677B2", "about": "“Composition for modulating IRAK1” (Agency for Science, Technology and Research, priority 2015, dated 2021)", "key": {"[1]": {"test_system": "p38-MCL-1 signaling in SUM159-PR cells", "assay": "Western blot of p-p38, MCL-1 and cleaved PARP", "type": "cell-based", "settings": "inhibitor with Paclitaxel", "method": "(§1) Western Blotting was performed as described previously (8). IRAK1 (Cat no: #4359), IRAK4 (Cat no.: 4363), cleaved PARP (Cat no.: #9541), p38 MAPK (Cat no.: #9212), phospho-p38 MAPK (T180/Y182) (Cat no.: #9211), phospho-NF-KappaB p65 (S536) (Cat no. #3031) were purchased from Cell Signaling (Danvers, Mass.). Phospho-IRAK1 (T209) antibody was purchased from Assay Biotech (Sunnyvale, Calif., Cat no.: A1074) and phospho-IRAK1 (S376) antibody from Genetex (Irvine, Calif., Cat no.: GTX50994). MCL-1 antibody was purchased from Santa Cruz Biotechnology (Santa Cruz, Calif., Cat no.: sc-819). Actin was purchased from Sigma-Aldrich (St Louis, Mo., Cat no.: A5441). Detection of bands was performed with the ChemiDoc™ MP Imaging Systems (Bio-Rad, Hercules, Calif.) and bands were subjected to further densitometric analysis with Image Lab software (Version 4.1, Bio-rad, Hercules, Calif.)."}, "IRAK1": {"target": "IRAK1 (Homo sapiens, UniProt P51617)", "sequence (P51617 whole entry, species assumed)": "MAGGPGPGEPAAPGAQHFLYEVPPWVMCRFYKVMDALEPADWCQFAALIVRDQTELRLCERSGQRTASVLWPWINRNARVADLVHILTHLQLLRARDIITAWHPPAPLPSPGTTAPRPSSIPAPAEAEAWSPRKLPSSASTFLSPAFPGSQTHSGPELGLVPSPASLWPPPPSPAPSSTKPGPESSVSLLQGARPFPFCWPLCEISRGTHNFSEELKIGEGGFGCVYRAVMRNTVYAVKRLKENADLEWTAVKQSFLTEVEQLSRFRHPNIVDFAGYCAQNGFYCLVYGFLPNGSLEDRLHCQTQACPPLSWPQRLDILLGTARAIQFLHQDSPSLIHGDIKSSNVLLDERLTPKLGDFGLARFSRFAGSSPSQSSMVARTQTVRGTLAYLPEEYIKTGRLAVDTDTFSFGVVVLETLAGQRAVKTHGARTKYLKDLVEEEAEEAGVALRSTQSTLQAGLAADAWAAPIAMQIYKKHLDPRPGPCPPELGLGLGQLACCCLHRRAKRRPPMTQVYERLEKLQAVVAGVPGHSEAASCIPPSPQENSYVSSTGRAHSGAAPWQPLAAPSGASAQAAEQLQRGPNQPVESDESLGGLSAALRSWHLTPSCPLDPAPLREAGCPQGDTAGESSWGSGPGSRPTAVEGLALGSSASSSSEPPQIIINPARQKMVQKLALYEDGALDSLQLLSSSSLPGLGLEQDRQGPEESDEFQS", "settings": "recently shown in Myelodysplastic Syndrome (ref 20); cited from earlier work"}, "[2]": {"test_system": "IL-6, IL-8 and CXCL1 secretion", "assay": "ELISA of cytokine secretion", "type": "cell-based", "method": "IL-6, IL-8 and CXCL1 levels were assessed using ELISA assay kit (Boster Bio, Pleasanton, Calif.). Supernates of the mammosphere formation assay were collected after 10 days in culture. 1:50 dilution was performed on the supernates before quantifying the amount of cytokines according to the manufacturer's protocol. For cytokine antibody array, supernates collected from the NS or shIRAK1 MB436 mammospheres after 10 days in culture were used directly without further dilution. Semi-quantitative detection of 120 human cytokines and chemokines in the supernates were performed using the RayBio® C-series Human Cytokine Antibody Array C1000 (RayBiotech, Inc., Norcross, GS, Cat no.: #AAH-CYT-1000-2) as per manufacturer's instructions. Detection of dots was performed with the ChemiDoc™ MP Imaging Systems (Bio-Rad, Hercules, Calif.) and the intensity of dots were quantified by densitometric analysis using the ImageJ software. The raw numerical densitometry data is extracted and subjected to background subtraction before normalizing the signal for each cytokines against the Positive Control signals in each cytokine array."}, "[3]": {"test_system": "BT549, MB436, MB468, MDA231 and MDA231-LM2 cells", "assay": "3D Matrigel growth of TNBC cells", "type": "cell-based", "settings": "5 μM IRAK-inh", "method": "8-well chamber slides (Falcon, cat: 354656, Falcon) were precoated with 7.6 mg/mL growth factor-reduced Matrigel (Falcon, cat: 354230, Falcon) for 30 min at 37° C. Approximately 5×10^3 for MDA231, 1×10^4 for MB436 and MB468, 1.5×10^4 cells for BT549 with indicated treatments were seeded in each well with DMEM containing 10% (vol/vol) FBS and 150 μg/mL Matrigel. Medium were replenished every 3 days and cell growth was monitored every 3 days by imaging over duration of 10-14 days."}, "[4]": {"test_system": "MDA231 and SUM159 parental and Paclitaxel-resistant sublines (PR)", "assay": "Cell viability of parental and Paclitaxel-resistant sublines, combination treatment", "type": "cell-based", "method": "For cell proliferation assay, the optimal cell seeding was first determined empirically for all cell lines by examining the growth of a wide range of seeding densities in a 96-well format to identify conditions that permitted proliferation for 7 days. Cells were then plated at the optimal seeding density 24 h before siRNA or drug treatment in triplicate. Plates were incubated for 7 days at 37° C. in 5% CO2. Cells were then lysed with CellTiter-Glo (CTG) (Promega, Madison, Wis.) and chemiluminescent signal was detected with a microplate reader on Day 0, 1, 3, 5 and 7. In addition, an untreated plate of cells was harvested at the time of drug or siRNA addition (T0) to quantify the starting number of cells. CTG values obtained after the 7 day treatment were expressed as percentages of the T0 value and plotted against time of treatment."}, "[5]": {"test_system": "BT549, MB436, MB468, MDA231 and MDA231-LM2 cells", "assay": "Mammosphere formation assay", "type": "cell-based", "settings": "5 μM IRAK-inh", "method": "Active growing cells were treated with 0.05% trypsin for 10 minutes then passed through […] cell strainer to achieve single cell suspension. Cells were plated (MDA231: 1×10^4; MB436: 3×10^4; MB468: 4×10^4 cells/well, BT549: 3×10^4, MDA231-LM2: 3×10^4) seeded in 6-well ultra-low attachment plates (Corning, Corning, N.Y., cat: CLS3471) in Mammocult medium (Stem cell Technologies, Vancouver, BC, Canada), supplemented with fresh hydrocortisone (0.51 μg/ml) and heparin (1:500). Tumorspheres were cultured for 7 days prior to being counted and photographed. Imaging and quantification were done using GelCount™ apparatus and associated software (Oxford Optronix, Abingdon, UK). For serial passages of tumorsphere formation assay, the spheres were collected by gentle centrifugation, dissociated to single cells for passaging tumorspheres every 14 days and counted. Tumorspheres were photographed and quantified 7-12 days later using a GelCount Colony Counter after staining with INT."}, "p-IRAK1 (T209)": {"target": "T1, p-IRAK1 (T209) (Homo sapiens, UniProt P51617)", "T1 construct": "The whole cell lysate were extracted with the NE-PER kit (Pierce Biotechnology) and subjected to immunoprecipitation using 2 μg total-IRAK1 antibody; endogenous in cells; host or cells: TNBC cell lines (BT549, MB436, MB468, MDA231, MDA231-LM2, SUM159 and paclitaxel-resistant sublines)", "T1 sequence (P51617 whole entry)": "as the sequence (P51617 whole entry, species assumed) above", "assay": "Western blot of p-IRAK1 in immunoprecipitated IRAK1", "type": "cell-based", "method": "as §1\nCo-IP was performed as described previously (9). The whole cell lysate were extracted with the NE-PER kit (Pierce Biotechnology) and subjected to immunoprecipitation using 2 μg total-IRAK1 antibody (Santa Cruz Biotech, Santa Cruz, Calif., Cat no.: sc-7883). The precipitated protein complex was captured using protein A-Agarose beads (Roche) and extensively washed with the washing buffer (50 mM Tris-HCl, 150 mM NaCl, 0.1% triton). The precipitated proteins were dissolved in SDS sample buffer along with 3 mM DTT, and subjected to immunoblotting analysis. Phospho-IRAK1 (T209) (Assay Biotechnology, Sunnyvale, Calif., Cat no.: A1074) was used for detection."}, "[6]": {"test_system": "SUM159-PR and MDA231-PR cells", "assay": "Apoptosis by FACS analysis of Sub-G1 cells", "type": "cell-based", "settings": "Paclitaxel-resistant cells", "method": "Cell cycle analysis was done by DNA content quantification to quantify the sub-G1 population which is reflective of the extent of cell death. Briefly, the cells were fixed with 70% ethanol and stained with propidium iodide (50 μg/ml) staining. The stained cells were analyzed by FACScalibur (BD Bioscience) and quantified by using CellQuest software (BD bioscience)."}, "[7]": {"test_system": "non-cancerous MCF10A and HMLE cells", "assay": "3D Matrigel growth of non-cancerous cells", "type": "cell-based", "settings": "5 uM IRAK-inh, one week"}, "MDA231-LM2 cells": {"test_system": "MDA231-LM2 cells", "assay": "Mammary fat pad MDA231-LM2 xenograft, lung metastasis by bioluminescence imaging", "type": "in vivo, NOD/SCID mice", "settings": "for lung metastasis: IRAK-inh 4 mg/kg, qd, ip, 14 days, started 7 days before primary tumor removal"}}}
{"smiles": "O=C(Nc1nc2ccccc2n1CCN1CCOCC1)c1cccc([N+](=O)[O-])c1", "note": "[IRAK-inh]", "values": [{"measurement": "PARP cleavage", "setting": "[1]", "result": "increased PARP cleavage"}, {"measurement": "p-p38 and MCL-1 expression", "setting": "[1]", "result": "decrease"}, {"measurement": "activity against IRAK1", "setting": "IRAK1", "result": "potent activity against IRAK1"}, {"measurement": "IL-8 and CXCL1 secretion", "setting": "[2]; IRAK-inh-sensitive TNBC cells, 5 μM IRAK-inh", "result": "strong reduction"}, {"measurement": "secretion of IL-6, IL-8 and CXCL1", "setting": "[2]; Paclitaxel-resistant cells, IRAK1-inh plus Paclitaxel", "result": "reduced secretion"}, {"measurement": "3D Matrigel growth", "setting": "[3]; BT549, MB436 and MB468 cells", "result": "marked inhibition"}, {"measurement": "3D Matrigel growth", "setting": "[3]; MDA231-LM2 cells, 7 days", "result": "impaired"}, {"measurement": "cell viability, combined with sub-toxic Paclitaxel", "setting": "[4]; both Paclitaxel-resistant cell lines (MDA231-PR, SUM159-PR), 5 μM IRAK-inh", "result": "dramatic loss of cell viability"}, {"measurement": "cell death in combination with paclitaxel", "setting": "[4]; paclitaxel-resistant MDA231 cells, IRAK-inh 5 μM", "result": "dramatic cell death"}, {"measurement": "cell viability, inhibitor on its own", "setting": "[4]; paclitaxel-resistant MDA231 cells, IRAK-inh 5 μM alone", "result": "no effect"}, {"measurement": "mammosphere growth", "setting": "[5]; BT549, MB436 and MB468 cells", "result": "marked inhibition"}, {"measurement": "mammosphere growth", "setting": "[5]; MDA231-LM2 cells, 7 days", "result": "impaired"}, {"measurement": "p-IRAK1 in TNBC cells", "setting": "p-IRAK1 (T209); IRAK-inh 5 μM", "result": "effectively abolished the p-IRAK1"}, {"measurement": "IL-1β-induced p-IRAK1", "setting": "p-IRAK1 (T209); MB436 cells, recombinant IL-1β, IRAK-inh 5 uM", "result": "abrogated"}, {"measurement": "apoptosis, combined with Paclitaxel", "setting": "[6]", "result": "massive apoptosis"}, {"measurement": "3D Matrigel growth / morphology", "setting": "[7]", "result": "no effect"}, {"measurement": "lung metastasis", "setting": "MDA231-LM2 cells; listed as IRAK1-inh", "result": "markedly reduced"}, {"measurement": "lung metastasis", "setting": "MDA231-LM2 cells; listed as IRAK1-inn", "result": "effectively blocked"}, {"measurement": "survival of mice carrying TNBC metastasis", "setting": "MDA231-LM2 cells; IRAK-inh treatment", "result": "extended the survival"}]}
